{
  "source": "patent US8673268B2",
  "about": "“Molecular targets and compounds, and methods to identify the same, useful in the treatment of joint degenerative and inflammatory diseases” (Galapagos N.V., priority 2004, dated 2014)",
  "key": {"TIMP-2 secretion by SFs": {"tested_on": "TIMP-2 secretion by SFs", "test": "TIMP-2 secretion ELISA", "type": "cell-based, human", "procedure": "The secretion of TIMP-2 by SFs is determined to eliminate the factor of general suppression of SF secretory activity by the Ad-siRNAs as the cause of reduced expression of MMP1 in the reverse MMP1 assay. TIMP-2 is a protein that SFs express and secret constitutively. Secretion of TIMP-2 into the SF supernatant is blocked by the addition of BrefeldinA, a small molecule inhibitor of secretion. The level of SF TIMP-2 protein secretion is detected by ELISA. RASF cells are seeded in 96-well gelatin coated plates at 3000 cells/well in 100 μl synovial growth medium. After overnight incubation, cells are infected and incubated for 5 days at 37° C. in a 10% CO2 incubator. […] TIMP2 levels are determined by a standard ELISA assay, essentially as outlined for the MMP1 ELISA. […] After 5 minutes incubation at room temperature in the dark, luminescence is quantified on a luminometer (Luminoscan Ascent).\nThe procedure described above (plate layout, MOI, method for determination of the cutoff) applied for these experiments is identical to the one described for the toxicity measurements (i.e., a primary test with 12 μl infection volume and a retest with 3, 6, 12 μl infection volumes) differing only in that the cutoff applied in the primary test is determined as the average over all samples minus 2 times standard deviation over all samples. […]"}, "[1]": {"tested_on": "MMP1 expression by synovial fibroblasts (SFs)", "test": "reverse MMP1 assay: MMP1 ELISA on supernatant of SFs activated with TNFα-based trigger", "type": "cell-based", "conditions": "Homo sapiens, Fibroblast, supernatant collected 48 hours after trigger, FIG. 5, read-out: IC50 for reduction of TNF-based trigger-induced MMP1 expression by SFs", "procedure": "A 384-well format ELISA for measurement of MMP1 is developed. Various primary antibodies are tested, as well as various ELISA protocols. The following protocol is developed and validated to measure MMP1 levels in SF supernatant in 384 well plates: white Lumitrac 600 384 well plates (Greiner) are coated with 2 μg/ml anti-MMP1 antibody MAB1346 (Chemicon). The antibody is diluted in buffer 40 (1.21 g Tris base (Sigma), 0.58 g NaCl (Calbiochem) and 5 ml 10% NaN3 (Sigma) in 1 L milliQ water and adjusted to pH 8.5). After overnight incubation at 4° C., plates are washed with PBS (80 g NaCl, 2 g KCl (Sigma), 11.5 g Na2HPO4.7H2O and 2 g KH2PO4 in 10 L milliQ; pH 7.4) and blocked with 100 μl/well Casein buffer (2% Casein (VWR International) in PBS). Next day, casein buffer is removed from ELISA plates and replaced by 50 μl/well EC buffer (4 g casein, 2.13 g Na2HPO4 (Sigma), 2 g bovine albumin (Sigma), 0.69 g NaH2PO4.H2O (Sigma), 0.5 g CHAPS (Roche), 23.3 g NaCl, 4 ml 0.5 M EDTA pH 8 (Invitrogen), 5 ml 10% NaN3 in 1 L milliQ and adjusted to pH 7.0). 0.25 mM DTT (Sigma) are added to the thawed samples plates. After removal of the EC buffer, 20 μl of sample are transferred to the ELISA plates. […] Readout is performed on the Luminoscan Ascent Luminometer (Labsystems) with an integration time of 200 msec or with an Envision reader (Perkin Elmer). […]"}, "rheumatoid arthritis": {"tested_on": "rheumatoid arthritis", "conditions": "RA patients, after 24 months treatment; cited from earlier work"}},
  "data": [
    {"smiles": "C[C@H]1CCC/C=C/[C@@H]2C[C@H](O)C[C@H]2[C@H](O)/C=C/C(=O)O1", "note": "[BrefeldinA]", "values": [
      {"measurement": "secretion of TIMP-2 into the SF supernatant", "setting": "TIMP-2 secretion by SFs", "result": "blocked"}
    ]},
    {"smiles": "C[C@@H]1C[C@H]2[C@@H]3CCC4=CC(=O)C=C[C@]4(C)[C@@]3(F)[C@@H](O)C[C@]2(C)[C@@]1(O)C(=O)CO", "note": "[dexamethasone]", "values": [
      {"measurement": "IC50", "setting": "[1]", "result": "~1", "unit": "nM"}
    ]},
    {"smiles": "CN(Cc1cnc2nc(N)nc(N)c2n1)c1ccc(C(=O)N[C@@H](CCC(=O)O)C(=O)O)cc1", "note": "[methotrexate]", "values": [
      {"measurement": "patients achieving an ACR50 score", "setting": "rheumatoid arthritis", "result": 30, "unit": "%"}
    ]}
  ]
}
